Measurements from patent US12077503B2, “Substituted cyclic amides and their use as herbicides” (FMC CORPORATION, priority 2015, dated 2024).
Read-outs that look alike come from different tables or passages of the source.

What was measured:
Type in all cases: in vivo
[1] = tested on: barnyardgrass (Echinochloa crus-galli); experiment: Test A preemergence; settings: Echinochloa crus-galli, pre-emergence, 240 h; for pest or weed control at 125 g/ha: 125 g ai/ha; for pest or weed control at 500 g/ha: 500 g ai/ha, visual injury rating about 10 d after treatment, 0 to 100 scale (0 no effect, 100 complete control)
Summary of the method: (§1)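 Preemergence directed soil spray on seeded pots, or postemergence application to plants 2–10 cm, one- to two-leaf. Solvent mixture non-phytotoxic, with surfactant. Scored ~10 d later, visually, 0–100 vs untreated.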

[2] = tested on: Galium (catchweed bedstraw, Galium aparine); experiment: Test A postemergence; settings: Galium, post-emergence, 240 h, postemergence; for pest or weed control at 125 g/ha: 125 g ai/ha, visual injury on 0 to 100 scale (0 no effect, 100 complete control); for pest or weed control at 500 g/ha: 500 g ai/ha
Summary of the method: as §1

Kochia (Kochia scoparia) = experiment: Test A postemergence; settings: Bassia scoparia, post-emergence, 240 h, postemergence; for pest or weed control at 125 g/ha: 125 g ai/ha, visual injury on 0 to 100 scale (0 no effect, 100 complete control); for pest or weed control at 500 g/ha: 500 g ai/ha
Summary of the method: as §1

[3] = tested on: barnyardgrass (Echinochloa crus-galli); experiment: Test A postemergence; settings: Echinochloa crus-galli, post-emergence, 240 h; for pest or weed control at 125 g/ha: 125 g ai/ha; for pest or weed control at 500 g/ha: 500 g ai/ha
Summary of the method: as §1

[4] = tested on: blackgrass (Alopecurus myosuroides); experiment: Test A postemergence; settings: Alopecurus myosuroides, post-emergence, 240 h; for pest or weed control at 125 g/ha: 125 g ai/ha; for pest or weed control at 500 g/ha: 500 g ai/ha
Summary of the method: as §1

corn (Zea mays) = experiment: Test A postemergence; settings: Zea mays, post-emergence, 240 h
Summary of the method: as §1

[5] = tested on: giant foxtail (Setaria faberii); experiment: Test A postemergence; settings: Setaria faberi, post-emergence, 240 h, postemergence; for pest or weed control at 125 g/ha: 125 g ai/ha, visual injury on 0 to 100 scale (0 no effect, 100 complete control); for pest or weed control at 500 g/ha: 500 g ai/ha
Summary of the method: as §1

[6] = tested on: pigweed (Amaranthus retroflexus); experiment: Test A postemergence; settings: Amaranthus retroflexus, post-emergence, 240 h, postemergence; for pest or weed control at 125 g/ha: 125 g ai/ha, visual injury on 0 to 100 scale (0 no effect, 100 complete control); for pest or weed control at 500 g/ha: 500 g ai/ha
Summary of the method: as §1

[7] = tested on: ragweed (common ragweed, Ambrosia elatior); experiment: Test A postemergence; settings: Ambrosia artemisiifolia, post-emergence, 240 h, postemergence; for pest or weed control at 125 g/ha: 125 g ai/ha, visual injury on 0 to 100 scale (0 no effect, 100 complete control); for pest or weed control at 500 g/ha: 500 g ai/ha
Summary of the method: as §1

[8] = tested on: ryegrass, Italian (Italian ryegrass, Lolium multiflorum); experiment: Test A postemergence; settings: Lolium multiflorum, post-emergence, 240 h, postemergence; for pest or weed control at 125 g/ha: 125 g ai/ha, visual injury on 0 to 100 scale (0 no effect, 100 complete control); for pest or weed control at 500 g/ha: 500 g ai/ha
Summary of the method: as §1

[9] = tested on: wheat (Triticum aestivum); experiment: Test A postemergence; settings: Triticum aestivum, post-emergence, 240 h, postemergence; for plant injury at 125 g/ha: 125 g ai/ha, visual injury on 0 to 100 scale (0 no effect, 100 complete control); for plant injury at 500 g/ha: 500 g ai/ha
Summary of the method: as §1

[10] = tested on: barnyardgrass (Echinochloa crus-galli); experiment: Test B flooded paddy test; settings: Echinochloa crus-galli, 250 g ai/ha, Flood; 0 to 100 scale where 0 is no effect and 100 is complete control; read-out: Barnyardgrass plant response rating
Summary of the method: (§2)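 Evaluation by eye, against controls, occurred 13–15 d post-treatment in a greenhouse, using a 0 (no effect) to 100 (complete control) scale. Application was into the paddy water, 3 cm deep over the soil, on 2-leaf plants.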

[11] = tested on: ducksalad (Heteranthera limosa); experiment: Test B flooded paddy test; settings: Heteranthera limosa, 250 g ai/ha, Flood; 0 to 100 scale where 0 is no effect and 100 is complete control; read-out: Ducksalad plant response rating
Summary of the method: as §2

rice (Oryra sativa) = experiment: Test B flooded paddy test; settings: Oryza sativa, 250 g ai/ha, Flood; 0 to 100 scale where 0 is no effect and 100 is complete control; read-out: Rice plant response rating
Summary of the method: as §2

[12] = tested on: sedge, umbrella (small-flower umbrella sedge, Cyperus difformis); experiment: Test B flooded paddy test; settings: Cyperus difformis, 250 g ai/ha, Flood; 0 to 100 scale where 0 is no effect and 100 is complete control; read-out: Sedge, Umbrella plant response rating
Summary of the method: as §2

[13] = preemergence, read-out: Barnyardgrass plant response rating
[14] = approx. 10 d, read-out: Galium plant response rating
[15] = approx. 10 d, read-out: Kochia plant response rating
[16] = approx. 10 d, read-out: Foxtail, Giant plant response rating
[17] = approx. 10 d, read-out: Pigweed plant response rating
[18] = approx. 10 d, read-out: Ragweed plant response rating
[19] = approx. 10 d, read-out: Ryegrass, Italian plant response rating
[20] = approx. 10 d, read-out: Wheat plant response rating

## Cc1cc([C@H]2CN(C)C(=O)[C@@H]2C(=O)Nc2cccc(F)c2F)ccc1Br [Compound 1099]
[1]; preemergence, 0 to 100 scale where 0 is no effect and 100 is complete control, approx. 10 d, read-out: Barnyardgrass plant response rating
  pest or weed control at 125 g/ha: 90%
[1]; [13]
  pest or weed control at 500 g/ha: 90%
[2]; [14]
  pest or weed control at 125 g/ha: 50%
[2]; 0 to 100 scale, 0 is no effect, 100 is complete control, read-out: Galium plant response rating
  pest or weed control at 500 g/ha: 60%
Kochia (Kochia scoparia); [15]
  pest or weed control at 125 g/ha: 30%
Kochia (Kochia scoparia); 0 to 100 scale, 0 is no effect, 100 is complete control, read-out: Kochia plant response rating
  pest or weed control at 500 g/ha: 60%
[3]; postemergence, visual injury on 0 to 100 scale (0 no effect, 100 complete control), approx. 10 d, read-out: Barnyardgrass plant response rating
  pest or weed control at 125 g/ha: 70%
[3]; postemergence, 0 to 100 scale, 0 is no effect, 100 is complete control, read-out: Barnyardgrass plant response rating
  pest or weed control at 500 g/ha: 80%
[4]; postemergence, visual injury on 0 to 100 scale (0 no effect, 100 complete control), approx. 10 d, read-out: Blackgrass plant response rating
  pest or weed control at 125 g/ha: 20%
[4]; postemergence, 0 to 100 scale, 0 is no effect, 100 is complete control, read-out: Blackgrass plant response rating
  pest or weed control at 500 g/ha: 40%
Corn (Zea mays); 125 g ai/ha, postemergence, visual injury on 0 to 100 scale (0 no effect, 100 complete control), approx. 10 d, read-out: Corn plant response rating
  plant injury at 125 g/ha: 50%
Corn (Zea mays); 500 g ai/ha, postemergence, 0 to 100 scale, 0 is no effect, 100 is complete control, read-out: Corn plant response rating
  plant injury at 500 g/ha: 60%
[5]; [16]
  pest or weed control at 125 g/ha: 80%
[5]; 0 to 100 scale, 0 is no effect, 100 is complete control, read-out: Foxtail, Giant plant response rating
  pest or weed control at 500 g/ha: 80%
[6]; [17]
  pest or weed control at 125 g/ha: 20%
[6]; 0 to 100 scale, 0 is no effect, 100 is complete control, read-out: Pigweed plant response rating
  pest or weed control at 500 g/ha: 50%
[7]; [18]
  pest or weed control at 125 g/ha: 0%
[7]; 0 to 100 scale, 0 is no effect, 100 is complete control, read-out: Ragweed plant response rating
  pest or weed control at 500 g/ha: 40%
[8]; [19]
  pest or weed control at 125 g/ha: 40%
[8]; 0 to 100 scale, 0 is no effect, 100 is complete control, read-out: Ryegrass, Italian plant response rating
  pest or weed control at 500 g/ha: 60%
[9]; [20]
  plant injury at 125 g/ha: 20%
[9]; 0 to 100 scale, 0 is no effect, 100 is complete control, read-out: Wheat plant response rating
  plant injury at 500 g/ha: 50%
[10]
  pest or weed control at 250 g/ha: 0%
[11]
  pest or weed control at 250 g/ha: 100%
Rice (Oryra sativa)
  pest or weed control at 250 g/ha: 0%
[12]
  pest or weed control at 250 g/ha: 0%

## Cc1ccc([C@H]2CNC(=O)[C@@H]2C(=O)Nc2cccc(F)c2C)cc1C [Compound 1035]
[1]; Preemergence, visual injury rating after approximately 10 d, read-out: Barnyardgrass plant response rating (0 to 100 scale, 0 is no effect, 100 is complete control)
  pest or weed control at 125 g/ha: 90%
[1]; [13]
  pest or weed control at 500 g/ha: 90%
[2]; [14]
  pest or weed control at 125 g/ha: 20%
[2]; visual injury, 0 to 100 scale (0 no effect, 100 complete control), approx. 10 d, read-out: Plant response rating, Galium
  pest or weed control at 500 g/ha: 50%
Kochia (Kochia scoparia); [15]
  pest or weed control at 125 g/ha: 0%
Kochia (Kochia scoparia); visual injury, 0 to 100 scale (0 no effect, 100 complete control), approx. 10 d, read-out: Plant response rating, Kochia
  pest or weed control at 500 g/ha: 20%
[3]; Postemergence, visual injury after approximately 10 d, 0 to 100 scale where 0 is no effect and 100 is complete control, read-out: Plant response rating, Barnyardgrass
  pest or weed control at 125 g/ha: 90%
[3]; postemergence, visual injury, 0 to 100 scale (0 no effect, 100 complete control), approx. 10 d, read-out: Plant response rating, Barnyardgrass
  pest or weed control at 500 g/ha: 90%
[4]; Postemergence, visual injury after approximately 10 d, 0 to 100 scale where 0 is no effect and 100 is complete control, read-out: Plant response rating, Blackgrass
  pest or weed control at 125 g/ha: 40%
[4]; postemergence, visual injury, 0 to 100 scale (0 no effect, 100 complete control), approx. 10 d, read-out: Plant response rating, Blackgrass
  pest or weed control at 500 g/ha: 60%
Corn (Zea mays); 125 g ai/ha, Postemergence, visual injury after approximately 10 d, 0 to 100 scale where 0 is no effect and 100 is complete control
  Corn plant response rating (crop injury, 0 = no effect, 100 = complete kill) at 125 g/ha: 50%
Corn (Zea mays); 500 g ai/ha, postemergence, visual injury, 0 to 100 scale (0 no effect, 100 complete control), approx. 10 d
  Corn plant response rating (crop injury, 0 = no effect, 100 = complete kill) at 500 g/ha: 60%
[5]; [16]
  pest or weed control at 125 g/ha: 50%
[5]; visual injury, 0 to 100 scale (0 no effect, 100 complete control), approx. 10 d, read-out: Plant response rating, Foxtail, Giant
  pest or weed control at 500 g/ha: 90%
[6]; [17]
  pest or weed control at 125 g/ha: 0%
[6]; visual injury, 0 to 100 scale (0 no effect, 100 complete control), approx. 10 d, read-out: Plant response rating, Pigweed
  pest or weed control at 500 g/ha: 0%
[7]; [18]
  pest or weed control at 125 g/ha: 0%
[7]; visual injury, 0 to 100 scale (0 no effect, 100 complete control), approx. 10 d, read-out: Plant response rating, Ragweed
  pest or weed control at 500 g/ha: 0%
[8]; [19]
  pest or weed control at 125 g/ha: 40%
[8]; visual injury, 0 to 100 scale (0 no effect, 100 complete control), approx. 10 d, read-out: Plant response rating, Ryegrass, Italian
  pest or weed control at 500 g/ha: 60%
[9]; [20]
  plant injury at 125 g/ha: 20%
[9]; visual injury, 0 to 100 scale (0 no effect, 100 complete control), approx. 10 d, read-out: Plant response rating, Wheat
  plant injury at 500 g/ha: 70%
[10]
  pest or weed control at 250 g/ha: 50%
[11]
  pest or weed control at 250 g/ha: 100%
Rice (Oryra sativa)
  pest or weed control at 250 g/ha: 0%
[12]
  pest or weed control at 250 g/ha: 0%
